# Square brackets hold non-standard residues; d marks the D form. Peptide text beside a SMILES is read from it.
# Columns and labels:
# [1] = test system: multiple myeloma (MM) and AML cell lines; settings: single agent; cited from earlier work
# [2] = test system: THP-1; assay: TCRL antibody binding (PR1-HLA-A2 presentation) on THP-1, flow cytometry; type: cell-based; settings: four doses of 1 μM added twice daily for two days, then two days culture
# Method: To determine the effect hypomethylation agents (HMAa) have on tumor antigen presentation, AML patient-derived tumor cells were treated for two days with four doses of 1 μM SGI-110, an HMA, added twice daily and then cultured for additional two days. TAP2 expression was assessed using immunohistochemical staining with and without treatment with SGI-110 (FIG. 3A). The HLA-A2 expressing AML cell line, THP-1, was treated for two days with four doses of 1 μM SGI-110 added twice daily and then cultured for an additional two days. The cells were then analyzed for binding capacity of a unique T cell receptor-like (TCRL) antibody. The TCRL antibody is a TCR mimic that recognizes the PR1-HLA-A2-MHC complex on the surface of leukemic cells where PR-1 is a known leukemic antigen. […] An HLA-A2 negative cell line U937 (histiocytic lymphoma) was used as a negative control.
# [3] = test system: AML cell; settings: in combination with decitabine; cited from earlier work
# [4] = test system: chronic lymphocytic leukemia (CLL) and AML cells; settings: cited from earlier work
structure (smiles),measurement,setting,value
"CN(C)CC[C@H](CSc1ccccc1)Nc1ccc(S(=O)(=O)NC(=O)c2ccc(N3CCN(Cc4ccccc4-c4ccc(Cl)cc4)CC3)cc2)cc1[N+](=O)[O-] [ABT-737, 4-[4-[[2-(4-chlorophenyl)phenyl]methyl]piperazin-1-yl]-N-[4-[[(2R)-4-(dimethylamino)-1-phenylsulfanylbutan-2-yl]amino]-3-nitrophenyl]sulfonylbenzamide]",activity against cell lines,[1],single agent activity
"Nc1ncn([C@H]2C[C@H](OP(=O)(O)OCC3O[C@@H](n4cnc5c(=O)[nH]c(N)nc54)CC3O)[C@@H](CO)O2)c(=O)n1 (stereo in doubt) [SGI-110, 2′-deoxy-5-aza-cytidylyl-(3′->5′)-2′-deoxy-guanosine]","tumor antigen presentation, binding of TCRL antibody",[2],increased binding of TCRL antibody
"N=C(N)NCCC[C@@H](N)C(=O)N[C@H](CCCNC(=N)N)C(=O)N[C@H](CCCNC(=N)N)C(=O)N[C@H](CCCNC(=N)N)C(=O)N[C@H](CCCNC(=N)N)C(=O)N[C@H](CCCNC(=N)N)C(=O)N[C@H](CCCNC(=N)N)C(=O)N[C@H](CCCNC(=N)N)C(=O)N[C@H](CCCNC(=N)N)C(=O)N[C@H](CS)C(=O)N[C@H](CCC(N)=O)C(=O)N[C@H](CS)C(=O)N[C@H](CCCNC(=N)N)C(=O)N[C@H](CCCNC(=N)N)C(=O)N[C@H](CCCCN)C(=O)N[C@H](CC(N)=O)C(=O)O.O=C(O)C(F)(F)F [GO-203, D-arginyl-D-arginyl-D-arginyl-D-arginyl-D-arginyl-D-arginyl-D-arginyl-D-arginyl-D-arginyl-D-cysteinyl-D-glutaminyl-D-cysteinyl-D-arginyl-D-arginyl-D-lysyl-D-asparagine trifluoroacetic acid] (H-[dR][dR][dR][dR][dR][dR][dR][dR][dR][dC][dQ][dC][dR][dR][dK][dN]-OH)",DNMT1 levels and AML cell survival,[3],effectively reduces DNMT1 levels and AML cell survival
"CC1(C)CCC(c2ccc(Cl)cc2)=C(CN2CCN(c3ccc(C(=O)NS(=O)(=O)c4ccc(N[C@H](CCN5CCOCC5)CSc5ccccc5)c(S(=O)(=O)C(F)(F)F)c4)cc3)CC2)C1 [navitoclax, 4-[4-[[2-(4-chlorophenyl)-5,5-dimethylcyclohexen-1-yl]methyl]piperazin-1-yl]-N-[4-[[(2R)-4-morpholin-4-yl-1-phenylsulfanylbutan-2-yl]amino]-3-(trifluoromethylsulfonyl)phenyl]sulfonylbenzamide]",anti-cancer activity,[4],anti-cancer activity

# — patent US20250319183A1, “COMPOSITIONS AND METHODS FOR THE TREATMENT OF CANCER” (Beth Israel Deaconess Medical Center, priority 2021, published 2025)
